Results taken from PubChem BioAssay AID1963982 (Molecular Pharmacology Branch, DTP, NCI, 2024).

Tested on: 313798-341-R-J2-PDC spheroids, viability
Assay: Anticancer human tumor 313798-341-R-J2-PDC patient-derived cervical squamous cell carcinoma cell line growth inhibition [PI3K]
Conditions: spheroids with HUVEC and MSC; for IC50: curve of first compound; for viability, T/C: stronger effect = lower value
Method in brief: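 Agents were dosed from a top concentration near clinical Cmax (otherwise 10 microM) in half-log decrements, alone or combined with PI3K inhibitors. The spheroids contain tumor cells plus endothelial (HUVEC) and MSC stroma; viability is measured.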
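Also: spheroids exposed to compounds for seven days.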
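For viability, T/C in this document: 100% = DMSO vehicle control viability.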

CNC(=O)c1ccc(N2C(=S)N(c3ccc(C#N)c(C(F)(F)F)c3)C(=O)C2(C)C)cc1F + Cc1nc(NC(=O)N2CCCC2C(N)=O)sc1-c1ccnc(C(C)(C)C(F)(F)F)c1
IC50 (second compound 0.0316 µM): > 10 µM | IC50 (second compound 0.1 µM): > 10 µM | IC50 (second compound 0.316 µM): > 10 µM | IC50 (second compound 1 µM): > 10 µM | IC50 (second compound 3.16 µM): > 10 µM | IC50 (second compound 10 µM): < 0.0316 µM | viability, T/C (second compound 0.0316 µM, first compound 0.0316 µM): 97.5% | viability, T/C (second compound 0.0316 µM, first compound 0.1 µM): 104% | viability, T/C (second compound 0.0316 µM, first compound 0.316 µM): 92.3% | viability, T/C (second compound 0.0316 µM, first compound 1 µM): 107% | viability, T/C (second compound 0.0316 µM, first compound 3.16 µM): 119% | viability, T/C (second compound 0.0316 µM, first compound 10 µM): 88.4% | viability, T/C (second compound 0.1 µM, first compound 0.0316 µM): 116% | viability, T/C (second compound 0.1 µM, first compound 0.1 µM): 101% | viability, T/C (second compound 0.1 µM, first compound 0.316 µM): 99.5% | viability, T/C (second compound 0.1 µM, first compound 1 µM): 105% | viability, T/C (second compound 0.1 µM, first compound 3.16 µM): 111% | viability, T/C (second compound 0.1 µM, first compound 10 µM): 114% | viability, T/C (second compound 0.316 µM, first compound 0.0316 µM): 104% | viability, T/C (second compound 0.316 µM, first compound 0.1 µM): 104% | viability, T/C (second compound 0.316 µM, first compound 0.316 µM): 107% | viability, T/C (second compound 0.316 µM, first compound 1 µM): 102% | viability, T/C (second compound 0.316 µM, first compound 3.16 µM): 117% | viability, T/C (second compound 0.316 µM, first compound 10 µM): 111% | viability, T/C (second compound 1 µM, first compound 0.0316 µM): 94.3% | viability, T/C (second compound 1 µM, first compound 0.1 µM): 89.4% | viability, T/C (second compound 1 µM, first compound 0.316 µM): 96.2% | viability, T/C (second compound 1 µM, first compound 1 µM): 96% | viability, T/C (second compound 1 µM, first compound 3.16 µM): 90.3% | viability, T/C (second compound 1 µM, first compound 10 µM): 90.4% | viability, T/C (second compound 3.16 µM, first compound 0.0316 µM): 67.4% | viability, T/C (second compound 3.16 µM, first compound 0.1 µM): 64.7% | viability, T/C (second compound 3.16 µM, first compound 0.316 µM): 65.9% | viability, T/C (second compound 3.16 µM, first compound 1 µM): 64.9% | viability, T/C (second compound 3.16 µM, first compound 3.16 µM): 61.5% | viability, T/C (second compound 3.16 µM, first compound 10 µM): 54.5% | viability, T/C (second compound 10 µM, first compound 0.0316 µM): 36% | viability, T/C (second compound 10 µM, first compound 0.1 µM): 39.3% | viability, T/C (second compound 10 µM, first compound 0.316 µM): 38.5% | viability, T/C (second compound 10 µM, first compound 1 µM): 36.8% | viability, T/C (second compound 10 µM, first compound 3.16 µM): 35.5% | viability, T/C (second compound 10 µM, first compound 10 µM): 33%

Cn1cnc2c(F)c(Nc3ccc(Br)cc3Cl)c(C(=O)NOCCO)cc21 + Cc1nc(NC(=O)N2CCCC2C(N)=O)sc1-c1ccnc(C(C)(C)C(F)(F)F)c1
IC50 (second compound 0.0316 µM): > 3 µM | IC50 (second compound 0.1 µM): > 3 µM | IC50 (second compound 0.316 µM): > 3 µM | IC50 (second compound 1 µM): 2.79 µM | IC50 (second compound 3.16 µM): 0.1 µM | IC50 (second compound 10 µM): < 0.00949 µM | viability, T/C (second compound 0.0316 µM, first compound 0.00949 µM): 98.8% | viability, T/C (second compound 0.0316 µM, first compound 0.03 µM): 95.7% | viability, T/C (second compound 0.0316 µM, first compound 0.0949 µM): 95.7% | viability, T/C (second compound 0.0316 µM, first compound 0.3 µM): 98.7% | viability, T/C (second compound 0.0316 µM, first compound 0.949 µM): 98.6% | viability, T/C (second compound 0.0316 µM, first compound 3 µM): 81.5% | viability, T/C (second compound 0.1 µM, first compound 0.00949 µM): 105% | viability, T/C (second compound 0.1 µM, first compound 0.03 µM): 102% | viability, T/C (second compound 0.1 µM, first compound 0.0949 µM): 98% | viability, T/C (second compound 0.1 µM, first compound 0.3 µM): 107% | viability, T/C (second compound 0.1 µM, first compound 0.949 µM): 99.4% | viability, T/C (second compound 0.1 µM, first compound 3 µM): 83.7% | viability, T/C (second compound 0.316 µM, first compound 0.00949 µM): 109% | viability, T/C (second compound 0.316 µM, first compound 0.03 µM): 99.7% | viability, T/C (second compound 0.316 µM, first compound 0.0949 µM): 98.6% | viability, T/C (second compound 0.316 µM, first compound 0.3 µM): 100% | viability, T/C (second compound 0.316 µM, first compound 0.949 µM): 92.6% | viability, T/C (second compound 0.316 µM, first compound 3 µM): 70.9% | viability, T/C (second compound 1 µM, first compound 0.00949 µM): 84% | viability, T/C (second compound 1 µM, first compound 0.03 µM): 79.1% | viability, T/C (second compound 1 µM, first compound 0.0949 µM): 71.4% | viability, T/C (second compound 1 µM, first compound 0.3 µM): 76.5% | viability, T/C (second compound 1 µM, first compound 0.949 µM): 68.7% | viability, T/C (second compound 1 µM, first compound 3 µM): 48.4% | viability, T/C (second compound 3.16 µM, first compound 0.00949 µM): 55.3% | viability, T/C (second compound 3.16 µM, first compound 0.03 µM): 50.3% | viability, T/C (second compound 3.16 µM, first compound 0.0949 µM): 50.7% | viability, T/C (second compound 3.16 µM, first compound 0.3 µM): 47.5% | viability, T/C (second compound 3.16 µM, first compound 0.949 µM): 39.9% | viability, T/C (second compound 3.16 µM, first compound 3 µM): 32.8% | viability, T/C (second compound 10 µM, first compound 0.00949 µM): 32.2% | viability, T/C (second compound 10 µM, first compound 0.03 µM): 25.8% | viability, T/C (second compound 10 µM, first compound 0.0949 µM): 23% | viability, T/C (second compound 10 µM, first compound 0.3 µM): 24.3% | viability, T/C (second compound 10 µM, first compound 0.949 µM): 17.1% | viability, T/C (second compound 10 µM, first compound 3 µM): 10.4%
